Experimental findings from paper PMC5152921, “Evolutionary and Functional Diversification of the Vitamin D Receptor-Lithocholic Acid Partnership” (PLoS ONE, 2016) are described below.

What all share (assay): Competitive ligand binding assay ([3H]-1,25D3 displacement)
Common to all, as to conditions: lysate with VDR and human RXRWT; 4 nM [3H]-1,25D3; 18 hours at 4°C; Cheng-Prusoff; mean ± SEM

In one assay the target is T1, Medaka VDRβ (Oryzias latipes, UniProt B2CCA1).
T1 sequence (B2CCA1 1-425): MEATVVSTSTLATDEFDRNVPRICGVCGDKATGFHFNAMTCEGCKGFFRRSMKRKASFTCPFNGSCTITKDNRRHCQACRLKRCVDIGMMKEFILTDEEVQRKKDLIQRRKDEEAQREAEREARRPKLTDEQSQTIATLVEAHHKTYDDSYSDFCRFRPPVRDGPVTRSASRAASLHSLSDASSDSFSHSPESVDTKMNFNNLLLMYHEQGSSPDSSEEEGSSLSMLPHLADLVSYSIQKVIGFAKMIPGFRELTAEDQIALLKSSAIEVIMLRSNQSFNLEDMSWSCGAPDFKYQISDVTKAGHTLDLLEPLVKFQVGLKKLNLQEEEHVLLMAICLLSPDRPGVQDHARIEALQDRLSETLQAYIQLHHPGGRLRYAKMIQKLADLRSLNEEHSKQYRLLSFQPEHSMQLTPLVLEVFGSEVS
T1 sequence (P19793 1-462 partner): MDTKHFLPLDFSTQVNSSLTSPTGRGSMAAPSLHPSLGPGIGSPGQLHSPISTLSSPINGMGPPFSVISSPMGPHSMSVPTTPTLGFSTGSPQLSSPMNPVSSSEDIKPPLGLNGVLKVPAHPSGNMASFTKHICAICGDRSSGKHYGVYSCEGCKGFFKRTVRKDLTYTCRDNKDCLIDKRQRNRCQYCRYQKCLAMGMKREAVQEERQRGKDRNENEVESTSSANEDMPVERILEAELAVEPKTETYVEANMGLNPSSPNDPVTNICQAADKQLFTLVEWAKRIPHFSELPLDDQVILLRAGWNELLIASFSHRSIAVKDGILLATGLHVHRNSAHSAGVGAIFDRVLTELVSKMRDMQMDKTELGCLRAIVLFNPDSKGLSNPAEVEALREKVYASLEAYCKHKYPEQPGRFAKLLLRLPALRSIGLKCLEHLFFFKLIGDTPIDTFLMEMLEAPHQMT
As for the experimental part:
(§1) Recombinant VDR and human RXRWT lysates were prepared from transfected COS7 cells (American Type Culture Collection #CRL-1651) as described in detail previously. Lysates were diluted 10-fold in ice-cold assay buffer (10 mM Tris HCl, 150 mM KCl, 1 mM EDTA, 0.3 mM ZnCl2, 5 mM DTT, and 1x protease inhibitor cocktail (100 μM AEBSF, 80 nM aprotinin, 5 μM bestatin, 1.5 μM E-64 (for cysteine proteases), 2 μM leupeptin, 1 μM pepstatin A), pH 7.5). […] Reactions were shaken to mix and incubated for 18 hours at 4°C. Bound and free ligand were separated with the addition of 80 μL of ice-cold separation buffer (2.5% (w/v) activated charcoal, 0.5% (w/v) dextran, 100 mM Na2HPO4, 39 mM NaH2PO4, 150 mM NaCl, 15 mM NaN3, 10% gelatin, pH 7.0), and incubated at 4°C for 15 minutes with shaking every 5 minutes. Reactions were centrifuged at 5,000 x g for 5 minutes at 4°C, and 200 μL of the supernatant containing the VDR-bound ligands was removed for scintillation counting.
(§2) Total binding was determined using lysate from cells transfected with VDR, and nonspecific binding was determined using lysate from cells transfected with the empty pSG5 vector. Specific binding was determined by subtracting non-specific binding counts from the total binding counts.

The next assay addresses T2, Skate VDR (Leucoraja erinacea, UniProt A0A088GDQ7).
T2 sequence (A0A088GDQ7 1-434): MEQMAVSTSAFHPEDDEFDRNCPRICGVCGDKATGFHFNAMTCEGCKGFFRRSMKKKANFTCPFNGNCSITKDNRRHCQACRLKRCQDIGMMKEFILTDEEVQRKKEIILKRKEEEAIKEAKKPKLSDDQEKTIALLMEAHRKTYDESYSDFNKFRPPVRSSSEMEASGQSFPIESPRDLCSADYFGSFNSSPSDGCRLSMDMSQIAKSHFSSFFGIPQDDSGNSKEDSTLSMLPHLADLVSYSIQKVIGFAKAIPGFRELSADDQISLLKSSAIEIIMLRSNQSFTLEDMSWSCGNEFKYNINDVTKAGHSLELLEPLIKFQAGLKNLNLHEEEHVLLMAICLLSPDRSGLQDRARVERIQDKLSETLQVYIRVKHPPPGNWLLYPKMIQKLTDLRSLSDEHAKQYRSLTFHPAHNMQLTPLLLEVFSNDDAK
T2 sequence (P19793 1-462 partner): T1 sequence (P19793 1-462 partner)
The procedure: as §1, §2

Another assay addresses T3, Bichir VDR (Polypterus senegalus, UniProt A0A088GJ14).
T3 sequence (A0A088GJ14 1-421): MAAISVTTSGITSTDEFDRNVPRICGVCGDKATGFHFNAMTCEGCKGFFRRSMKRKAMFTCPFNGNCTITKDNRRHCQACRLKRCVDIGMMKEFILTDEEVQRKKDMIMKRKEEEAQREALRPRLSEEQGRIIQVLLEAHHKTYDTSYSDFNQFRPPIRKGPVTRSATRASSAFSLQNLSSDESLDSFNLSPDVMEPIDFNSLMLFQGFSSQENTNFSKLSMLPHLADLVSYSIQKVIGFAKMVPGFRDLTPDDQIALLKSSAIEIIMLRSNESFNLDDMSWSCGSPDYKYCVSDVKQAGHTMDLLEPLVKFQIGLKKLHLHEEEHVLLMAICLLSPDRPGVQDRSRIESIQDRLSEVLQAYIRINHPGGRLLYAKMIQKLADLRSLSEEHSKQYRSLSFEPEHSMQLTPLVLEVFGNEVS
T3 sequence (P19793 1-462 partner): T1 sequence (P19793 1-462 partner)
As for the experimental part: as §1, §2

In another assay the target is Medaka VDRα (Oryzias latipes, UniProt B2CCA0). As for the experimental part:
as §1, §2

A further assay concerns the target T4, Lamprey VDR (Petromyzon marinus, UniProt Q7ZZY9).
T4 sequence (Q7ZZY9 1-406): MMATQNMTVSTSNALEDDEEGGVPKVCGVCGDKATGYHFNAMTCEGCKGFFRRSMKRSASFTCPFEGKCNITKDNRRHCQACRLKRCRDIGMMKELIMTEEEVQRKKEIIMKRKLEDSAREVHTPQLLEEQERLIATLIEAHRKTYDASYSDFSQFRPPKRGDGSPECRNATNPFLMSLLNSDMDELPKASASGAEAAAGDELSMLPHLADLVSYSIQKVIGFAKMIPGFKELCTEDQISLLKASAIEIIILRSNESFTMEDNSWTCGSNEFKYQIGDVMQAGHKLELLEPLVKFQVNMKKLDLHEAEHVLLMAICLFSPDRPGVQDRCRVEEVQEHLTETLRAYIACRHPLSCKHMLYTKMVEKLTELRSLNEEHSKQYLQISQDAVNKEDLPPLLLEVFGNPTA
T4 sequence (P19793 1-462 partner): T1 sequence (P19793 1-462 partner)
As for the experimental part: as §1, §2

Chain of Medaka VDRα (B2CCA0 entry or part of it, one chain of several): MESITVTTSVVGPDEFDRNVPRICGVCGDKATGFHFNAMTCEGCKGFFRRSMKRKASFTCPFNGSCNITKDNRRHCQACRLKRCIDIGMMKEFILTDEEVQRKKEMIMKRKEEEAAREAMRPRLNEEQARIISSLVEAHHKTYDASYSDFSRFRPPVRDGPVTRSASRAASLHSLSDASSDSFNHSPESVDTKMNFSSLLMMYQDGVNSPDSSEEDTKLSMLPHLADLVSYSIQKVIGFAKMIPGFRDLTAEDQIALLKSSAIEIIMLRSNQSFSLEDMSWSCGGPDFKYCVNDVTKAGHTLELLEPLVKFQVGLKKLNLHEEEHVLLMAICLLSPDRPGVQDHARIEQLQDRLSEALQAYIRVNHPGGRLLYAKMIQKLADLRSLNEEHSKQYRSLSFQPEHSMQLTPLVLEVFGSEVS

In general, Ki refers to a dissociation constant, usually derived from enzyme kinetics or from competition with a known ligand. Higher therefore signals a looser hold on the target. As for `C[C@H](CCC(=O)O)[C@H]1CC[C@H]2[C@@H]3CC[C@@H]4C[C@H](O)CC[C@]4(C)[C@H]3CC[C@]12C` [LCA, 5β-cholanic acid-3α-ol], the Ki at Medaka VDRβ was determined as 7.6 ± 1.1 µM; on Skate VDR, 6.7 ± 2.1 µM; on Bichir VDR, 4.2 ± 0.4 µM; on Medaka VDRα, 6.5 ± 1.9 µM; at Lamprey VDR, 8.7 µM.
